Assay results taken from US11040028B2, “Penicinotam derivative, preparation method and use thereof” (OCEAN UNIVERSITY OF CHINA, priority 2017, dated 2021).

Experiments:
Format in all cases: cell-based
[1] = system: BHK-21 cells; assay: Anti-fibrosis activity test: inhibition of BHK-21 cell proliferation (CCK-8)
Procedure: (§1) BHK-21 cells in exponential growth phase were selected. After the fusion growth reached 85-95%, normal passage method was utilized to digest and collect the cells, followed by cell counting and adjusting the cell density to 2×10^4 cells/mL. The cells were seeded into 96-well plates, 100 μL/well, and were incubated under the condition of 5% CO2 at 37° C.
(§2) The supernatant was removed after the cells had adhered to the wall for 24 hours. The culture solution containing the prepared compounds at different concentrations were added to the wells, 100 μL/well, each concentration in triplicate. The cells were subcultured for 48 hours after administration. Commercially available pirfenidone was employed as the positive control.
(§3) 10 μL of CCK-8 solution ( 1/10 of the volume of the culture solution) was added to each well 48 hours after the administration, and incubated for 2 hours. The absorbance (A) of each well was determined by a microplate reader at 450 nm wavelength. The inhibition rate against cell proliferation for each compound was calculated based on A, wherein inhibition rate against cell proliferation (inhibition ratio, IR)=(1−value of experimental group (Ai)/value of blank control group (Ao))×100% and the IC50 value of each compound was calculated by the data processing software.

[2] = system: human lung fibroblasts HFL1; assay: Anti-fibrosis activity test: inhibition of proliferation of human lung fibroblasts HFL1 (CCK-8)
Procedure: as §1, §2, §3
(§4) Using the same protocol for the cell experiments, the inhibitory activity of the test compounds against the proliferation of human lung fibroblasts HFL1, human hepatic stellate cells LX-2, human fibrosarcoma cells HT-1080, human dermal fibroblasts CCC-ESF-1, human embryonic lung fibroblast IMR-90, cardiac fibroblast RAT-iCell-C002 was assayed.

[3] = system: human dermal fibroblasts CCC-ESF-1; assay: Anti-fibrosis activity test: inhibition of proliferation of human dermal fibroblasts CCC-ESF-1 (CCK-8)
Procedure: as §1, §2, §3, §4

[4] = system: human hepatic stellate cells LX-2; assay: Anti-fibrosis activity test: inhibition of proliferation of human hepatic stellate cells LX-2 (CCK-8)
Procedure: as §1, §2, §3, §4

[5] = system: human fibrosarcoma cells HT-1080; assay: Anti-fibrosis activity test: inhibition of proliferation of human fibrosarcoma cells HT-1080 (CCK-8)
Procedure: as §1, §2, §3, §4

[6] = system: human embryonic lung fibroblast IMR-90; assay: Anti-fibrosis activity test: inhibition of proliferation of human embryonic lung fibroblast IMR-90 (CCK-8)
Procedure: as §1, §2, §3, §4

[7] = system: cardiac fibroblast RAT-iCell-C002; assay: Anti-fibrosis activity test: inhibition of proliferation of cardiac fibroblast RAT-iCell-C002 (CCK-8); details: Cardiac fibroblast, 48 h
Procedure: as §1, §2, §3, §4

[8] = Mesocricetus auratus, BHK-21, 48 h, CCK-8, 48 hours after administration
[9] = Homo sapiens, HFL1, 48 h, human lung fibroblasts HFL1, CCK-8, 48 hours
[10] = Fibroblast, human dermal fibroblasts CCC-ESF-1, CCK-8, 48 hours
[11] = Homo sapiens, 48 h, human hepatic stellate cells LX-2, CCK-8, 48 hours
[12] = Homo sapiens, HT-1080, 48 h, human fibrosarcoma cells HT-1080, CCK-8, 48 hours
[13] = human embryonic lung fibroblast IMR-90, CCK-8, 48 hours
[14] = cardiac fibroblast RAT-iCell-C002, CCK-8, 48 hours
[15] = human dermal fibroblasts CCC-ESF-1, CCK-8, 48 hours
[16] = CCK-8, 48 hours after administration
[17] = human lung fibroblasts HFL1, CCK-8, 48 hours

SMILES	IC50 [1, 8] [mM]	IC50 [2, 9] [mM]	IC50 [3, 10] [mM]	IC50 [4, 11] [mM]	IC50 [5, 12] [mM]	IC50 [6, 13] [mM]	IC50 [7, 14] [mM]	also measured
N#Cc1cc2c(OCc3ccc(Cl)cc3)c3c(nc2cc1N1CCNCC1)-c1cccn1C3=O [Compound 640b, 9-((4-chlorobenzyl)oxy)-10-oxo-6-(piperazin-1-yl)-10H-pyrrolizino[1,2-b]quinoline-7-carbonitrile]	0.05 to 5	0.05 to 5	0.05 to 5	0.05 to 5	0.05 to 5	0.05 to 5	0.05 to 5	–
O=C1c2c(nc3cc(Cl)ccc3c2OCc2ccccc2Cl)-c2cccn21 [Compound 510b, 6-chloro-9-((2-chlorobenzyl)oxy)-10H-pyrrolizino[1,2-b]quinolin-10-one]	0.05 to 5	0.05 to 5	0.05 to 5	0.05 to 5	0.05 to 5	0.05 to 5	0.05 to 5	–
O=C1c2c(nc3cc(N4CCNCC4)cc(F)c3c2OCc2ccc(Cl)cc2)-c2cccn21 [Compound 647b, 9-((4-chlorobenzyl)oxy)-8-fluoro-6-(piperazin-1-yl)-10H-pyrrolizino[1,2-b]quinolin-10-one]	0.05 to 5	0.05 to 5	0.05 to 5	0.05 to 5	0.05 to 5	0.05 to 5	0.05 to 5	–
O=C1c2c(nc3cc(N4CCNCC4)c(F)cc3c2OCc2ccc(Br)cc2)-c2cccn21 [Compound 633b, 9-((4-bromobenzyl)oxy)-7-fluoro-6-(piperazin-1-yl)-10H-pyrrolizino[1,2-b]quinolin-10-one]	0.05 to 5	0.05 to 5	0.05 to 5	0.05 to 5	0.05 to 5	0.05 to 5	0.05 to 5	–
Cc1cc2n(c1)C(=O)c1c-2[nH]c2ccccc2c1=O [Compound 801a, 2-Methyl-9H-pyrrolizino[1,2-b]quinoline-9,10(4H)-dione]	–	–	–	–	–	–	–	IC50 ([1]; Mesocricetus auratus, BHK-21, 48 h, 48 h, CCK-8): < 0.05 mM; IC50 ([2]; Homo sapiens, HFL1, 48 h, HFL1 cells, 48 h, CCK-8): 0.05 to 5 mM; IC50 ([3]; Homo sapiens, Fibroblast, CCC-ESF-1 cells, 48 h, CCK-8): 0.05 to 5 mM; IC50 ([4]; Homo sapiens, LX-2, 48 h, LX-2 cells, 48 h, CCK-8): 0.05 to 5 mM; IC50 ([5]; Homo sapiens, HT-1080, 48 h, HT-1080 cells, 48 h, CCK-8): 0.05 to 5 mM; IC50 ([6]; Homo sapiens, IMR-90 cells, 48 h, CCK-8): 0.05 to 5 mM; IC50 ([7]; RAT-iCell-C002 cells, CCK-8): 0.05 to 5 mM
O=C1c2c(n(Cc3cc(C(F)(F)F)cc(C(F)(F)F)c3)c3cc(N4CCNCC4)c(F)cc3c2=O)-c2cccn21 [Compound 639a, 4-(3,5-Bis(trifluoromethyl)benzyl)-7-fluoro-6-(piperazin-1-yl)-9H-pyrrolizino[,2-b]quinoline-9,10(4H)-dione]	–	–	–	–	–	–	–	IC50 [3, 15]: < 0.05 mM
N#Cc1cc2c(=O)c3c(n(Cc4ccc(C(F)(F)F)cc4)c2cc1N1CCNCC1)-c1cccn1C3=O [Compound 642a, 9,10-Dioxo-6-(piperazin-1-yl)-4-(4-(trifluoromethyl)benzyl)-4,10-dihydro-9H-pyrrolizino[1,2-b]quinoline-7-carbonitrile]	0.05 to 5	0.05 to 5	< 0.05	0.05 to 5	0.05 to 5	0.05 to 5	0.05 to 5	–
O=C1c2c(nc3cc(N4CCNCC4)c(F)cc3c2OCc2ccc(C(F)(F)F)cc2)-c2cccn21 [Compound 636b, 7-fluoro-6-(piperazin-1-yl)-9-((4-(trifluoromethyl)benzyl)oxy)-10H-pyrrolizino[1,2-b]quinolin-10-one]	0.05 to 5	0.05 to 5	0.05 to 5	0.05 to 5	0.05 to 5	0.05 to 5	0.05 to 5	–
CC(C)CCn1c2c(c(=O)c3cc(F)c(N4CCNCC4)cc31)C(=O)n1cccc1-2 [Compound 347a, 7-Fluoro-4-isopentyl-6-(piperazin-1-yl)-9H-pyrrolizino[1,2-b]quinoline-9,10(4H)-dione]	0.05 to 5	0.05 to 5	0.05 to 5	5 to 20	0.05 to 5	0.05 to 5	0.05 to 5	–
O=C1c2c(nc3cc(N4CCNCC4)c(F)cc3c2OCc2ccc(-c3ccccc3)cc2)-c2cccn21 [Compound 637b, 9-([1,1′-biphenyl]-4-ylmethoxy)-7-fluoro-6-(piperazin-1-yl)-10H-pyrrolizino[1,2-b]quinolin-10-one]	0.05 to 5	0.05 to 5	0.05 to 5	0.05 to 5	5 to 20	0.05 to 5	0.05 to 5	–
O=C1c2c(n(Cc3ccc(F)cc3F)c3cc(N4CCNCC4)ccc3c2=O)-c2cccn21 [Compound 630a, 4-(2,4-Difluorobenzyl)-6-(piperazin-1-yl)-9H-pyrrolizino[1,2-b]quinoline-9,10(4H)-dione]	–	–	–	–	–	–	–	IC50 [1, 16]: < 0.05 mM; IC50 [2, 17]: < 0.05 mM
O=C1c2c(n(Cc3ccccc3Cl)c3cc(Cl)ccc3c2=O)-c2cccn21 [Compound 510a, 6-Chloro-4-(2-chlorobenzyl)-9H-pyrrolizino[1,2-b]quinoline-9,10(4H)-dione]	< 0.05	0.05 to 5	0.05 to 5	0.05 to 5	0.05 to 5	0.05 to 5	0.05 to 5	–
O=C1c2c(n(Cc3ccc(Cl)cc3)c3cc(N4CCNCC4)c(F)cc3c2=O)-c2cccn21 [Compound 632a, 4-(4-Chlorobenzyl)-7-fluoro-6-(piperazin-1-yl)-9H-pyrrolizino[1,2-b]quinoline-9,10(4H)-dione]	0.05 to 5	0.05 to 5	< 0.05	0.05 to 5	0.05 to 5	0.05 to 5	0.05 to 5	–
N#Cc1cc2c(=O)c3c(n(Cc4ccc(-c5ccccc5)cc4)c2cc1N1CCNCC1)-c1cccn1C3=O [Compound 643a, 4-([1,1′-Biphenyl]-4-ylmethyl)-9,10-dioxo-6-(piperazin-1-yl)-4,10-dihydro-9H-pyrrolizino[1,2-b]quinoline-7-carbonitrile]	< 0.05	0.05 to 5	0.05 to 5	0.05 to 5	5 to 20	0.05 to 5	0.05 to 5	–
O=C1c2c(n(Cc3ccc(Cl)cc3)c3cc(N4CCNCC4)cc(F)c3c2=O)-c2cccn21 [Compound 647a, 4-(4-Chlorobenzyl)-8-fluoro-6-(piperazin-1-yl)-9H-pyrrolizino[1,2-b]quinoline-9,10(4H)-dione]	0.05 to 5	0.05 to 5	0.05 to 5	0.05 to 5	0.05 to 5	0.05 to 5	0.05 to 5	–
O=C1c2c(nc3cccc(Cl)c3c2OCc2ccccc2Cl)-c2cccn21 [Compound 645b, 8-chloro-9-((2-chlorobenzyl)oxy)-10H-pyrrolizino[1,2-b]quinolin-10-one]	0.05 to 5	0.05 to 5	0.05 to 5	0.05 to 5	0.05 to 5	0.05 to 5	0.05 to 5	–
N#Cc1ccc(COc2c3c(nc4cc(N5CCNCC5)c(C#N)cc24)-c2cccn2C3=O)cc1 [Compound 641b, 9-((4-cyanobenzyl)oxy)-10-oxo-6-(piperazin-1-yl)-10H-pyrrolizino[1,2-b]quinoline-7-carbonitrile]	0.05 to 5	0.05 to 5	0.05 to 5	0.05 to 5	0.05 to 5	0.05 to 5	0.05 to 5	–
O=C1c2c(nc3cc(N4CCNCC4)ccc3c2OCc2ccc(F)cc2F)-c2cccn21 [Compound 630b, 9-((2,4-difluorobenzyl)oxy)-6-(piperazin-1-yl)-10H-pyrrolizino[1,2-b]quinolin-10-one]	–	–	–	–	–	–	–	IC50 [1, 16]: 0.05 to 5 mM; IC50 [2, 17]: 5 to 20 mM
N#Cc1ccc2nc3c(c(OCc4ccc(-c5ccccc5C#N)cc4)c2c1)C(=O)n1cccc1-3 [Compound 629b, 9-((2′-cyano-[1,1′-biphenyl]-4-yl)methoxy)-10-oxo-10H-pyrrolizino[,2-b]quinoline-7-carbonitrile]	–	–	–	–	–	–	–	IC50 [1, 16]: 0.05 to 5 mM; IC50 [3, 15]: 0.05 to 5 mM
Cc1cc2n(c1)C(=O)c1c-2nc2ccccc2c1O [Compound 801b, 9-hydroxy-2-methyl-0H-pyrrolizino[1,2-b]quinolin-10-one]	–	–	–	–	–	–	–	IC50 ([1]; 48 h, CCK-8): 0.05 to 5 mM
O=C(Cn1c2c(c(=O)c3ccccc31)C(=O)n1cccc1-2)c1ccc(C(F)(F)F)cc1 [Compound 91a, 4-(2-Oxo-2-(4-(trifluoromethyl)phenyl)ethyl)-9H-pyrrolizino[1,2-b]quinoline-9,10(4)-dione]	–	–	–	–	–	–	–	IC50 ([4]; human hepatic stellate cells LX-2, CCK-8, 48 hours): 0.05 to 5 mM; IC50 ([5]; human fibrosarcoma cells HT-1080, CCK-8, 48 hours): 5 to 20 mM
